{
  "source": "paper PMC8840742",
  "about": "(Molecules, 2022)",
  "key": {"[1]": {"test_system": "SARS-CoV-2 B.1.1.7 (UK or Alpha variant)", "test": "microbe, parasite or virus in culture", "assay_type": "cell-based", "details": "Severe acute respiratory syndrome coronavirus 2, Vero C1008; VeroE6 cells in presence of P-gp inhibitor"}, "[2]": {"test_system": "SARS-CoV-2 B.1.617.2 (Indian or Delta variant)", "test": "microbe, parasite or virus in culture", "assay_type": "cell-based", "details": "Severe acute respiratory syndrome coronavirus 2, Vero C1008; VeroE6 cells in presence of P-gp inhibitor"}},
  "data": [
    {"molecule": "c1ccc(CCN2CCC(Oc3ccccc3-c3nc(-c4ccncc4)no3)C2)cc1", "note": "(centres unmarked) [Compound 1, 5-(2-((1-Phenethylpyrrolidin-3-yl)oxy)phenyl)-3-(pyridin-4-yl)-1,2,4-oxadiazole]", "values": [
      {"measurement": "EC50", "setting": "[1]", "value": "3000 ± 1000", "unit": "nM"},
      {"measurement": "EC50", "setting": "[2]", "value": "4 ± 2", "unit": "µM"}
    ]}
  ]
}
